Measured values taken from US20210317490A1, “ANTICANCER COMPOUNDS” (priority 2017, published 2021).
In brackets after ≈: the same amount, converted by molar mass.

Columns and labels:
A549 = assay: SRB colorimetric cytotoxicity assay, A549; format: cell-based, human; settings: A549, 72 hours treatment; for TGI: total cell growth inhibition; for GI50 / CC50: Homo sapiens; for GI50: 50% cell growth inhibition; for CC50: 50% net cell killing, read-out: LC50 (the source's name)
Source text: (§1) The aim of this assay is to evaluate the in vitro cytostatic (ability to delay or arrest tumor cell growth) or cytotoxic (ability to kill tumor cells) activity of the samples being tested.
(§2) A colorimetric assay, using sulforhodamine B (SRB) reaction has been adapted to provide a quantitative measurement of cell growth and viability (following the technique described by Skehan et al. J. Natl. Cancer Inst. 1990, 82, 1107-1112).
(§3) This form of assay employs 96-well cell culture microplates following the standards of the American National Standards Institute and the Society for Laboratory Automation and Screening (ANSI SLAS 1-2004 (R2012) 10/12/2011). All the cell lines used in this study were obtained from the American Type Culture Collection (ATCC) and derive from different types of human cancer.
(§4) Cells were maintained in Dulbecco's Modified Eagle Medium (DMEM) supplemented with 10% Fetal Bovine Serum (FBS), 2mM L-glutamine, 100 U/mL penicillin and 100 U/mL streptomycin at 37 ° C., 5% CO2 and 98% humidity. For the experiments, cells were harvested from subconfluent cultures using trypsinization and resuspended in fresh medium before counting and plating.
(§5) Cells were seeded in 96 well microtiter plates, at 5000 cells per well in aliquots of 150 μL and allowed to attach to the plate surface for 18 hours (overnight) in drug free medium. After that, one control (untreated) plate of each cell line was fixed (as described below) and used for time zero reference value. Culture plates were then treated with test compounds (50 μL aliquots of 4× stock solutions in complete culture medium plus 4% DMSO) using ten 2/5 serial dilutions (concentrations ranging from 10 to 0.003 μg/mL) and triplicate cultures (1% final concentration in DMSO). After 72 hours treatment, the antitumor effect was measured by using the SRB methodology: Briefly, cells were washed twice with PBS, fixed for 15 min in 1% glutaraldehyde solution at room temperature, rinsed twice in PBS, and stained in 0.4% SRB solution for 30 min at room temperature. Cells were then rinsed several times with 1% acetic acid solution and air-dried at room temperature. SRB was then extracted in 10 mM trizma base solution and the absorbance measured in an automated spectrophotometric plate reader at 490 nm. Effects on cell growth and survival were estimated by applying the NCI algorithm (Boyd M R and Paull K D. Drug Dev. Res. 1995, 34, 91-104).
(§6) The values obtained in triplicate cultures were fitted to a four-parameter logistic curve by nonlinear regression analysis. Three reference parameters were calculated (according to the NCI algorithm) by automatic interpolation of the curves obtained from such fitting: GI50=compound concentration that produces 50% cell growth inhibition, as compared to control cultures; TGI=total cell growth inhibition (cytostatic effect), as compared to control cultures, and LC50=compound concentration that produces 50% net cell killing cytotoxic effect).

HT29 = assay: SRB colorimetric cytotoxicity assay, HT29; format: cell-based, human; settings: for TGI: HT29, 72 hours treatment, total cell growth inhibition; for GI50 / CC50: Homo sapiens, HT-29, HT29, 72 hours treatment; for GI50: 50% cell growth inhibition; for CC50: 50% net cell killing, read-out: LC50 (the source's name)
Source text: as §1, §2, §3, §4, §5, §6

MDA-MB-231 = assay: SRB colorimetric cytotoxicity assay, MDA-MB-231; format: cell-based, human; settings: MDA-MB-231, 72 hours treatment; for GI50 / LC50 (concentration giving 50% net cell killing): Homo sapiens; for GI50: 50% cell growth inhibition; for TGI: total cell growth inhibition
Source text: as §1, §2, §3, §4, §5, §6

PSN-1 = assay: SRB colorimetric cytotoxicity assay, PSN1; format: cell-based, human; settings: for GI50 / CC50: Homo sapiens, PSN1, PSN-1, 72 hours treatment; for GI50: 50% cell growth inhibition; for CC50: 50% net cell killing, read-out: LC50 (the source's name); for TGI: PSN-1, 72 hours treatment, total cell growth inhibition
Source text: as §1, §2, §3, §4, §5, §6

[1] = system: P-388 murine leukemia cell line; settings: cited from earlier work; for IC50 against the P-388 murine leukemia cell line: mycalamides, J. Nat. Prod. 2000, 63, 704
[2] = toxicity lower than pederin; cited from earlier work
HeLa cells = settings: cited from earlier work
B104 cells = settings: cited from earlier work
[3] = system: EUE, E6D, HeLa, KB, Hep, AS, MEF, CE, BHK, Z1 and M1 cell lines; settings: within four days, in all the cell lines analyzed; cited from earlier work

**Q.** Which TGI (A549) does the source give for `C=C1CC(OC)(C(O)C(=O)NC(OC)C2CC(O)C(C)(C)C(CC(CO)OC)O2)OC(C)C1C` (stereo not shown) [Compound 1] here?
**A.** 7.97 nM

**Q.** And the GI50 (A549)?
**A.** 2.04 nM

**Q.** What about the CC50 (A549) of the same compound?
**A.** 36.8 nM

**Q.** What about the TGI (HT29) of the same compound?
**A.** 8.99 nM

**Q.** What about the GI50 (HT29) of the same compound?
**A.** 2.86 nM

**Q.** And the CC50 (HT29)?
**A.** > 204 nM

**Q.** What about the GI50 (MDA-MB-231) of the same compound?
**A.** 2.66 nM

**Q.** What about the LC50 (concentration giving 50% net cell killing) (MDA-MB-231) of the same compound?
**A.** 10.8 nM

**Q.** And the TGI (MDA-MB-231)?
**A.** 5.31 nM

**Q.** And the GI50 (PSN-1)?
**A.** 2.66 nM

**Q.** What about the CC50 (PSN-1) of the same compound?
**A.** 19.4 nM

**Q.** And the TGI (PSN-1)?
**A.** 5.72 nM

**Q.** Which results are given for `C=C1CC(OC)(C(O)C(=O)NC(OC)C2CC(O)C(C)(C)C(CC(O)CO)O2)OC(C)C1C` (stereo not shown) [Compound 2]?
**A.** TGI (A549): 25.2 nM; GI50 (A549): 7.15 nM; CC50 (A549): 122 nM; TGI (HT29): 44.2 nM; GI50 (HT29): 8.83 nM; CC50 (HT29): > 2100 nM; GI50 (MDA-MB-231): 8.2 nM; LC50 (concentration giving 50% net cell killing) (MDA-MB-231): 31.5 nM; TGI (MDA-MB-231): 15.6 nM; GI50 (PSN-1): 8.62 nM; CC50 (PSN-1): 77.8 nM; TGI (PSN-1): 19.1 nM

**Q.** For `C=C1CC(OC)(C(OC(C)=O)C(=O)NC(OC)C2CC(OC(C)=O)C(C)(C)C(CC(COC(C)=O)OC)O2)OC(C)C1C` (stereo not shown) [Compound 3], which TGI (A549) is on record?
**A.** 877 nM

**Q.** What about the GI50 (A549) of the same compound?
**A.** 115 nM

**Q.** And the CC50 (A549)?
**A.** 8610 nM

**Q.** And the TGI (HT29)?
**A.** 926 nM

**Q.** And the GI50 (HT29)?
**A.** 162 nM

**Q.** And the CC50 (HT29)?
**A.** > 16200 nM

**Q.** What about the GI50 (MDA-MB-231) of the same compound?
**A.** 309 nM

**Q.** And the LC50 (concentration giving 50% net cell killing) (MDA-MB-231)?
**A.** > 16200 nM

**Q.** What about the TGI (MDA-MB-231) of the same compound?
**A.** 2440 nM

**Q.** What about the GI50 (PSN-1) of the same compound?
**A.** 162 nM

**Q.** And the CC50 (PSN-1)?
**A.** 3900 nM

**Q.** What about the TGI (PSN-1) of the same compound?
**A.** 666 nM

**Q.** With `C=C1C[C@](OC)([C@H](O)C(=O)N[C@H]2OCO[C@H]3[C@@H]2O[C@H](C[C@H](O)CO)C(C)(C)[C@@H]3OC)O[C@H](C)[C@@H]1C` [Mycalamide A] as the compound, how does the “IC50 against the P-388 murine leukemia cell line” value [1] read?
**A.** 3.0 ng/mL (≈ 5.96 nM)

**Q.** Which “IC50 against the P-388 murine leukemia cell line” value [1] does the source give for `C=C1C[C@](OC)([C@H](O)C(=O)N[C@H]2OCO[C@H]3[C@@H]2O[C@H](CC(CO)OC)C(C)(C)[C@@H]3OC)O[C@H](C)[C@@H]1C` (stereo partly shown) [Mycalamide B] here?
**A.** 0.7 ng/mL (≈ 1.35 nM)

**Q.** Which “IC50 against the P-388 murine leukemia cell line” value [1] does the source give for `C=C1C[C@](OC)([C@H](O)C(=O)NC[C@H]2O[C@H](CO)C(C)(C)[C@H](O)[C@H]2O)O[C@H](C)[C@@H]1C` [Mycalamide C] here?
**A.** 95.0 ng/mL (≈ 228 nM)

**Q.** For `C=C1C[C@](OC)([C@H](O)C(=O)N[C@H]2OCO[C@H]3[C@@H]2O[C@H](C[C@H](O)CO)C(C)(C)[C@@H]3O)O[C@H](C)[C@@H]1C` [Mycalamide D], which “IC50 against the P-388 murine leukemia cell line” value [1] is on record?
**A.** 35 ng/mL (≈ 71.5 nM)

**Q.** Which “IC50 against the murine P388 cell line” value ([1]; U.S. Pat. No. 4,801,606) does the source give for `C=C1C[C@](OC)([C@H](O)C(=O)N[C@H]2OCO[C@H]3[C@@H]2O[C@H](C[C@H](O)CCC/C=C/C=C/C=C/C(=O)N[C@@H](CCCNC(=N)N)C(=O)O)C(C)(C)[C@@H]3OC)O[C@H](C)[C@@H]1C` [Onnamide A] here?
**A.** 1 ng/mL (≈ 1.26 nM)

**Q.** For `C=C1C[C@](OC)([C@H](O)C(=O)NC[C@@H]2C[C@H](O)C(C)(C)[C@@H](C[C@H](O)CCC/C=C/C=C/C=C/C(=O)N[C@@H](CCCNC(=N)N)C(=O)O)O2)O[C@H](C)[C@@H]1C` [Onnamide E], which “cytotoxic activity against the P388 cell line” value ([1]; at a concentration of 0.4 μg/mL) is on record?
**A.** did not show cytotoxic activity

**Q.** For `C=C1C[C@](O)([C@H](O)C(=O)N[C@@H](OC)[C@@H]2C[C@@H](O)C(C)(C)[C@@H](C[C@@H](COC)OC)O2)O[C@H](C)[C@@H]1C` [Pseudopederin, pseudopederin], which “active dose relative to pederin” value [2] is on record?
**A.** 10 times higher

**Q.** Which IC50 (HeLa cells) does the source give for `C=C1C[C@](OC)([C@H](O)C(=O)N[C@@H](O)[C@@H]2C[C@@H](O)C(C)(C)[C@@H](C[C@H](O)CO)O2)O[C@H](C)[C@@H]1C` [diaphorin] here?
**A.** ~2000 nM

**Q.** What about the IC50 (B104 cells) of the same compound?
**A.** ~1000 nM

**Q.** Which “concentration sufficient to cause cellular death” value [3] does the source give for `C=C1C[C@](OC)([C@H](O)C(=O)N[C@@H](OC)[C@@H]2C[C@@H](O)C(C)(C)[C@@H](CC(COC)OC)O2)O[C@H](C)[C@@H]1C` (stereo partly shown) [pederin] here?
**A.** ~3 nM
